Laboratory results from patent US10556865B2, “Synergistic herbicidal composition containing certain pyridine or pyrimidine carboxylic acids and certain cereal and rice herbicides” (Dow AgroSciences, LLC, priority 2007, dated 2020).

Legend:
Format in all cases: in vivo
[1] = system: scented mayweed (Matricaria chamomila L; MATCH); test: Postemergence herbicidal activity of mixtures in cereal crops (greenhouse, visual injury); conditions: Matricaria, post-emergence, read-out: MATCH Ob
Procedure: (§1) The plants were grown for 7-36 days in a greenhouse with an approximate 14 hour photoperiod which was maintained at about 18° C. during the day and 17° C. during the night. Nutrients and water were added on a regular basis and supplemental lighting was provided with overhead metal halide 1000-Watt lamps as necessary. The plants were employed for testing when they reached the second or third true leaf stage.
(§2) Treatments consisted of compound (as listed in Tables 1 through 64) and a second cereal herbicide alone and in combination. […] Control plants were sprayed in the same manner with the solvent blank.
(§3) The treated plants and control plants were placed in a greenhouse as described above and watered by sub-irrigation to prevent wash-off of the test compounds. After 20-22 days, the condition of the test plants as compared with that of the control plants was determined visually and scored on a scale of 0 to 100 percent where 0 corresponds to no injury and 100 corresponds to complete kill.
(§4) The following equation was used to calculate the expected activity of mixtures containing two active ingredients, A and B: Expected=A+B−(A×B/100)

[2] = system: bird's-eye speedwell (Veronica persica L; VERPE); test: as above
Procedure: as §1, §2, §3, §4

[3] = system: black mustard (Brassica nigra L; BRSNI); test: as above; conditions: Brassica, post-emergence, read-out: BRSNI Ob
Procedure: (§5) Seeds of the desired test plant species were planted in Sun Gro MetroMix® 306 planting mixture, which typically has a pH of 6.0 to 6.8 and an organic matter content of about 30 percent, in plastic pots with a surface area of 103.2 square centimeters (cm^2). When required to ensure good germination and healthy plants, a fungicide treatment and/or other chemical or physical treatment was applied. The plants were grown for 7-36 days in a greenhouse with an approximate 14 hour photoperiod which was maintained at about 18° C. during the day and 17° C. during the night. Nutrients and water were added on a regular basis and supplemental lighting was provided with overhead metal halide 1000-Watt lamps as necessary. The plants were employed for testing when they reached the second or third true leaf stage.
Treatments consisted of compound (as listed in Tables 1 through 64) and a second cereal herbicide alone and in combination. Weighed amounts of esters (methyl) or salts (TEA [triethylammonium], K [potassium]) of 4-amino-3-chloro -6-(4-chloro-2-fluoro-3-methoxyphenyl)pyridine-2-carboxylic acid (Compound A) or of 6-amino-5-chloro-2-(4-chloro-2-fluoro-3-methoxyphenyl)pyrimidine-4-carboxylic acid (Compound B), were placed in 25 milliliter (mL) glass vials and dissolved in a volume of 97:3 v/v acetone/DMSO to obtain 4.5 milligrams (mg) active ingredient (ai)/mL stock solutions. […] The concentrated stock solutions were diluted to 1.5 mg ai/mL with the addition of 2 volumes of an aqueous mixture containing acetone, water, isopropyl alcohol, DMSO, Agri-dex crop oil concentrate, and Triton® X-77 surfactant in a 64.7:26.0:6.7:2.0:0.7:0.01 v/v ratio. A dilution solution was prepared by mixing 1 volume of 97:3 v/v acetone/DMSO and 2 volumes of an aqueous mixture containing acetone, water, isopropyl alcohol, DMSO, Agri-dex crop oil concentrate, and Triton® X-77 surfactant in a 64.7:26.0:6.7:2.0:0.7:0.01 v/v ratio. Compound requirements are based upon a 12 mL application volume at a rate of 187 liters per hectare (L/ha). Spray solutions of the second cereal herbicide and experimental compound mixtures were prepared by adding the stock solutions to the appropriate amount of dilution solution to form 12 mL spray solution with active ingredients in two- and three-way combinations. Formulated compounds were applied to the plant material with an overhead Mandel track sprayer equipped with 8002E nozzles calibrated to deliver 187 L/ha over an application area of 0.503 square meters (m^2) at a spray height of 18 inches (43 cm) above average plant canopy. Control plants were sprayed in the same manner with the solvent blank.
as §3
(§6) Colby's equation was used to determine the herbicidal effects expected from the mixtures (Colby, S. R. 1967. Calculation of the synergistic and antagonistic response of herbicide combinations. Weeds 15:20-22.).
as §4

[4] = system: blackgrass (Alopecurus myosuroides L; ALOMY); test: Postemergence herbicidal activity of mixtures in cereal crops (greenhouse, visual injury 0-100 percent after 20-22 days)
Procedure: as §5, with “When required to ensure good germination and healthy plants, a fungicide treatment and/or other chemical or physical treatment was applied.” left out
(§7) Treatments consisted of compound (as listed in Tables 1 through 64) and a second cereal herbicide alone and in combination. […] The concentrated stock solutions were diluted to 1.5 mg ai/mL with the addition of 2 volumes of an aqueous mixture containing acetone, water, isopropyl alcohol, DMSO, Agri-dex crop oil concentrate, and Triton® X-77 surfactant in a 64.7:26.0:6.7:2.0:0.7:0.01 v/v ratio. A dilution solution was prepared by mixing 1 volume of 97:3 v/v acetone/DMSO and 2 volumes of an aqueous mixture containing acetone, water, isopropyl alcohol, DMSO, Agri-dex crop oil concentrate, and Triton® X-77 surfactant in a 64.7:26.0:6.7:2.0:0.7:0.01 v/v ratio. Compound requirements are based upon a 12 mL application volume at a rate of 187 liters per hectare (L/ha). […] Formulated compounds were applied to the plant material with an overhead Mandel track sprayer equipped with 8002E nozzles calibrated to deliver 187 L/ha over an application area of 0.503 square meters (m^2) at a spray height of 18 inches […] above average plant canopy. Control plants were sprayed in the same manner with the solvent blank.
as §3, §6, §4

[5] = system: windgrass (Apera spica-venti L; APESV); test: Postemergence herbicidal activity of mixtures in cereal crops (greenhouse, visual injury); conditions: Apera spica-venti, post-emergence, read-out: APESV Ob
Procedure: as §5, with “When required to ensure good germination and healthy plants, a fungicide treatment and/or other chemical or physical treatment was applied.” left out
as §7, §3, §6, §4

[6] = system: littleseed Canarygrass (Phalaris minor L; PHAMI); test: as above
Procedure: as §5, with “When required to ensure good germination and healthy plants, a fungicide treatment and/or other chemical or physical treatment was applied.” left out
as §7, §3, §6, §4

[7] = system: annual ryegrass (Lolium multiflorum L; LOLMG); test: as above; conditions: 50 g/ha, Table 22
Procedure: as §5, with “When required to ensure good germination and healthy plants, a fungicide treatment and/or other chemical or physical treatment was applied.” left out
as §7, §3, §6, §4

[8] = system: Cyperus esculentus L. (CYPES); test: Postemergence herbicidal mixtures for weed control in direct seeded rice (greenhouse, visual % injury)
Cyperus iria L. (CYPIR) = test: as above
[9] = system: Ipomoea hederacea (L.) JACQ. (IPOHE); test: Postemergence herbicidal mixtures for weed control in direct seeded rice (greenhouse, visual % injury after 3 weeks)
[10] = system: wild pansy (Viola tricolor L; VIOTR); test: Postemergence herbicidal activity of mixtures in cereal crops (greenhouse, visual injury); conditions: Viola tricolor, post-emergence, read-out: VIOTR Ob
Procedure: as §1, §2, §3, §4

[11] = system: Echinochloa species (ECHSS); test: Herbicidal mixtures for weed control in transplanted paddy rice (in-water application, visual % injury after 3 weeks); conditions: for % Injury ECHOR Ob: ECHOR = Echinocloa oryzoides
Procedure: Weed seeds or nutlets of the desired test plant species were planted in puddled soil (mud) prepared by mixing a non-sterilized mineral soil (28 percent silt, 18 percent clay, and 54 percent sand, with a pH of about 7.3 to 7.8 and an organic matter content of about 1.0 percent) and water at a ratio of 100 kilograms (kg) of soil to 19 L of water. The prepared mud was dispensed in 250 mL aliquots into 480 mL non-perforated plastic pots with a surface area of 91.6 square centimeters leaving a headspace of 3 centimeters in each pot. Rice seeds were planted in Sun Gro MetroMix® 306 planting mixture, which typically has a pH of 6.0 to 6.8 and an organic matter content of about 30 percent, in plastic plug trays. Seedlings at the second or third leaf stage of growth were transplanted into 650 mL of mud contained in 960 mL non-perforated plastic pots with a surface area of 91.6 cm^2 4 days prior to herbicide application. The paddy was created by filling the 3 centimeter headspace of the pots with water. When required to ensure good germination and healthy plants, a fungicide treatment and/or other chemical or physical treatment was applied. The plants were grown for 4-14 days in a greenhouse with an approximate 14 hr photoperiod which was maintained at about 29° C. during the day and 26° C. during the night. Nutrients were added as Osmocote (17:6:10, N:P:K+minor nutrients) at 2 g per cup. Water was added on a regular basis to maintain the paddy flood, and supplemental lighting was provided with overhead metal halide 1000-Watt lamps as necessary. The plants were employed for testing when they reached the second or third true leaf stage.
Treatments consisted of esters or salts of compound A, compound C, or compound D and various herbicidal components alone and in combination. For technical grade compounds, a weighed amount, determined by the highest rate to be tested, was placed in an individual 120 mL glass vial and was dissolved in 20 mL of acetone to obtain concentrated stock solutions. […] The concentrated stock solutions obtained were diluted with 20 mL of an aqueous mixture containing 2.5% Agri-dex crop oil concentrate (v/v). For formulated compounds, a measured amount, determined by the highest rate to be tested, was placed in an individual 120 mL glass vial and was dissolved in 20 mL of 2.5% (v/v) Agri-dex crop oil concentrate to obtain concentrated stock solutions. The concentrated stock solutions obtained were diluted with 20 mL of acetone. Applications were made by injecting an appropriate amount of the stock solution into the aqueous layer of the paddy. Control plants were treated in the same manner with the solvent blank. All treated plant material received the same concentration of acetone and crop oil concentrate.
Forms of compounds A, C, and D were applied on an acid equivalent basis. Other herbicidal components were applied on an active ingredient basis and included acetolactate synthase (ALS)-inhibiting herbicides penoxsulam (triazolopyrimidine chemical class) applied as Grasp SC, […] (sulfonylurea chemical class) applied as Sirius G, and bensulfuron-methyl (sulfonylurea chemical class) applied as Londax; acetyl CoA carboxylase (ACCase) inhibiting herbicides cyhalofop-butyl applied as Clincher G and fenoxaprop-p-ethyl applied as Ricestar HT; auxinic herbicide quinclorac applied as Facet 75 DF; phytoene desaturase inhibiting herbicide norflurazon; and p-hydroxyphenylpyruvate dioxygenase (HPPD) inhibiting herbicide sulcotrione applied as Mikado.
The treated plants and control plants were placed in a greenhouse as described above and water was added as needed to maintain a paddy flood. After 3 weeks the condition of the test plants as compared with that of the untreated plants was determined visually and scored on a scale of 0 to 100 percent where 0 corresponds to no injury and 100 corresponds to complete kill.

COc1c(Cl)ccc(Cl)c1C(=O)O [Dicamba]
pest or weed control at 35 g/ha ([1]; 35 g/ha alone): 30% | pest or weed control at 35 g/ha ([2]; Veronica persica, post-emergence, 35 g/ha alone, read-out: VERPE Ob): 10% | pest or weed control at 35 g/ha ([3]; 35 g/ha alone): 50%

CCON=C(CC)C1=C(O)CC(c2c(C)cc(C)cc2C)CC1=O (stereo not drawn) [Tralkoxydim, 2-[1-(ethoxyimino)propyl]-3-hydroxy-5-(2,4,6-trimethylphenyl)-2-cyclohexen-1-one, reference compound]
ALOMY Ob ([4]; 25 g/ha, Table 6): 78% | ALOMY Ob ([4]; 50 g/ha, Table 6): 70% | ALOMY Ob ([4]; 50 g/ha, Table 22): 70% | pest or weed control at 50 g/ha [5]: 75% | PHAMI Ob ([6]; 25 g/ha, Table 6): 35% | PHAMI Ob ([6]; 50 g/ha, Table 6): 45% | PHAMI Ob ([6]; 50 g/ha, Table 22): 30% | LOLMG Ob [7]: 50%

CCN(CC)CC.O=C(O)COc1nc(Cl)c(Cl)cc1Cl [Triclopyr-TEA]
% Injury CYPES Ob ([8]; alone 140 g/ha): 0% | % Injury CYPES Ob ([8]; alone 280 g/ha): 0%

COc1cc(OC)nc(Oc2cccc(Oc3nc(OC)cc(OC)n3)c2C(=O)O)n1 [Bispyribac-sodium]
% Injury CYPIR Ob (Cyperus iria L. (CYPIR); alone 7 g/ha): 40% | % Injury CYPIR Ob (Cyperus iria L. (CYPIR); alone 14 g/ha): 90% | % Injury CYPIR Ob (Cyperus iria L. (CYPIR); alone 28 g/ha): 95% | % Injury CYPES Ob ([8]; alone 14 g/ha): 0% | % Injury CYPES Ob ([8]; alone 28 g/ha): 50% | % Injury IPOHE Ob ([9]; alone 7 g/ha): 10% | % Injury IPOHE Ob ([9]; alone 28 g/ha): 60%

CSc1nnc(C(C)(C)C)c(=O)n1N [Metribuzin]
pest or weed control at 50 g/ha ([2]; Veronica persica, post-emergence, 50 g/ha alone, read-out: VERPE Ob): 10% | pest or weed control at 50 g/ha ([10]; 50 g/ha alone): 20% | pest or weed control at 50 g/ha ([3]; 50 g/ha alone): 50%

CS(=O)(=O)c1ccc(C(=O)C2C(=O)CCCC2=O)c(Cl)c1 [Sulcotrione]
% Injury ECHOR Ob ([11]; Sulcotrione 70 g/ha alone (Compound A Methyl half)): 10% | % Injury ECHOR Ob ([11]; Sulcotrione 70 g/ha alone (Compound A TEA half)): 10%

CCC(C)(CC)c1cc(NC(=O)c2c(OC)cccc2OC)on1 [Isoxaben]
pest or weed control at 31.25 g/ha ([2]; Veronica persica, post-emergence, 31.25 g/ha alone, read-out: VERPE Ob): 0% | pest or weed control at 31.25 g/ha ([10]; 31.25 g/ha alone): 3%

CCOC(=O)c1cnn(C)c1S(=O)(=O)NC(=O)Nc1nc(OC)cc(OC)n1 [Pyrazosulfuron-ethyl]
% Injury Ob ([11]; ECHCG, 5.25 g/ha alone): 20%

CC(Oc1ccc(Cl)cc1Cl)C(=O)O (stereo not drawn) [Dichlorprop]
pest or weed control at 140 g/ha ([1]; 140 g/ha alone): 10% | pest or weed control at 140 g/ha ([2]; Veronica persica, post-emergence, 140 g/ha alone, read-out: VERPE Ob): 20%

CCOc1c(Cl)ccc(-c2cc(N)c(Cl)c(C(=O)OC)n2)c1F [Compound D Methyl]
% Injury CYPIR Ob (Cyperus iria L. (CYPIR); alone 8.75 g/ha): 50% | % Injury CYPIR Ob (Cyperus iria L. (CYPIR); alone 35 g/ha): 80%

COc1nc(C)nc(NC(=O)NS(=O)(=O)c2ccccc2Cl)n1 [Chlorsulfuron, 2-chloro-N-[[(4-methoxy-6-methyl-1,3,5-triazin-2-yl)amino]carbonyl]benzenesulfonamide, reference compound]
VERPE Ob ([2]; 2.2 g/ha, Table 28): 5%
